Assay results from patent US6894075B2, “4′-demethyl-4′-O-substituted-1-deoxypodophyllotoxin derivative and geometric isomer thereof, process for the preparation thereof and anti-cancer composition comprising the same” (priority 2000, dated 2005).
Where “and” joins values, the source holds several entries; their conditions need not be identical. Identical values can stand only once.

What was measured:
[1] = tested on: Lewis Lung Cancer Cell (LLC); test: Anti-cancer test for BDF1 mouse transplanted by Lewis Lung Cancer Cell, Experiment 2-1 (formulae 1a, 1b); assay type: in vivo; details: peritoneal injection 0.06 mmole/kg/day at days 1, 2, 4, 7, 8 (etoposide 36 mg/kg), cancer volume at 14 to 16 days
Description: In order to evaluate the anti-cancer activity of the compounds of the present invention, LLC, which is a lung cancer cell of mouse, was transplanted into the hypodermic region of BDF1 mouse to induce a solid cancer. […] Experiment for the compounds of formulae (1a) and (1b) and that for the compound of formula (1c) were separately carried out.
Male BDF1 mouse (Weight 18 to 25 g), being in good health and purchased from Korea Biolink Co., was used as a test animal.
The mice were bred at a place controlled to the temperature of 23 to 24° C. while provided with water and feed ad libitum. As the feed, feed for mouse containing no antibiotics was used. The hypodermic tissue of C57BL/6 mouse, which includes cells cultured therein for 14 days, was taken up. Sterilized cold physiological saline was added to the tissue in the amount of 5 ml/g tissue to make a cell suspension. This cell suspension of 0.2 ml was transplanted into the hypodermic region of armpit of BDF1 mouse.
(§1) Each group includes 5 mice. After 24 hours from the transplantation, each test compound of formulae (1a) and (1b) was dissolved in 4% Tween 80 and injected peritoneally in the amount of 0.2 ml and in a concentration of 0.06 mmole/kg/day (that is, 0.06 mmole of each test compound was dissolved in 10 ml of 4% Tween 80, and then 0.2 ml of the resulting solution was peritoneally injected into a mouse). Only 4% Tween 80 was injected for the negative control group, and the same moles of etoposide (36 mg/kg) was injected for the positive control group. The injection was performed five times at 1, 2, 4, 7 and 8 days from the transplantation of cancer.
The anti-cancer effect was determined by measuring the volume of cancer of the control and test groups at 14 to 16 days from the administration of drugs and then calculated as follows. Volume of Cancer(mm^3)=Length(mm)×Width^2(mm^2)/2 Suppression Rate of Cancer Growth(%)=(C−T)×100(%)/C in which • C represents the average volume of cancer (mm^3) of the control group, and • T represents the average volume of cancer (mm^3) of the test group.

[2] = tested on: A549 cell; test: Cytotoxicity test (SRB method) for A549 cells; assay type: cell-based, human; details: for EC50: A549 human lung cancer cell, SRB, read-out: ED50(nM) for A549; for EC50 / ED50(mg/mL) for A549: 48 hours incubation; for ED50(mg/mL) for A549: A549, SRB, Table 2
Description: (§2) Human lung carcinomas A549 and […] were used for determining cytotoxicity of the compounds of the present invention according to the Sulfrhodamine-B (SRB) method which was developed by NCI in 1989 in order to determine in vitro anticancer activity of drugs.
(§3) Cells to be used in the experiment were separated from a surface using 0.5% Trypsin-EDTA solution and suspended in a density of 5×10^4 cell/ml therein. The cell suspension was introduced into a 96-well plate in an amount of 180/well and incubated for 24 hours in a 5% CO2 incubator of 37° C. Samples were dissolved in dimethylsulfoxide and then diluted by water distilled in advance for three times just before the experiment. Forty-one (41) samples were prepared into 4 types of final concentrations, i.e., 0.1, 0.03, 0.01 and 0.003 mg per ml of the medium. The diluted sample solutions were added to the 96-well plate in the amount of 20 μl/well and incubated for 48 hours in a CO2 incubator of 37° C. At the time of adding the samples, Tz (Time zero) plate was taken. The medium was removed from the Tz plate and each of the plates after incubation were completed. Ten (10)% […] (TCA) was added in the amount of […], and allowed to stand for 1 hour at 4° C. to fix the cells on the bottom surface of the plate. After the cells were fixed, the plate was washed five to six times with water to completely remove the remaining TCA solution and then dried at room temperature to completely remove the moisture. To the fully dried plate was introduced a dye solution in the amount of […] in which 0.4% SRB was dissolved in 1% acetic acid solution. […] After the dyeing process, the plate was dried again at room temperature. 100 ml of 10 mM Tris solution was added thereto in order to dissolve the dye, and then O.D. (optical density) was determined by microplate reader at 520 nm.
(§4) ED50 values for cancer cells were calculated as follows. The amount of SRB protein was analyzed at the time when incubation started by the addition of the sample. This amount was named time zero (Tz). The O.D. value obtained from a group which was not treated by the sample was named Control group (C) and the O.D. value obtained from a group which was treated by the sample was named Test group (T).
(§5) The degree of cytotoxicity of the compounds was calculated from Tz, C and T values according to the following equation.
(§6) That is, in the case of Tz≧T, the degree was calculated by
(§7) (T−Tz)/(C−Tz)×100(%), and
(§8) • in the case of Tz<T, the degree was calculated by […].
(§9) From the values thus obtained, ED50 value which is defined as the concentration at which growth of the cancer cell is inhibited by 50% was calculated using the regression function of Excel program.

[3] = Weight change in the period of drug administration; assay type: in vivo, mouse; details: for Weight of mouse, Day 1: Day 1 from the cancer cell transplantation; for Weight of mouse, Day 2: Day 2 from the cancer cell transplantation; for Weight of mouse, Day 3: Day 3 from the cancer cell transplantation; for Weight of mouse, Day 4: Day 4 from the cancer cell transplantation; for Weight of mouse, Day 5: Day 5 from the cancer cell transplantation; for Weight of mouse, Day 6: Day 6 from the cancer cell transplantation; for Weight of mouse, Day 7: Day 7 from the cancer cell transplantation; for Weight of mouse, Day 8: Day 8 from the cancer cell transplantation
Procedure: as §1
As an index of toxicity, the weight change during the period of drug administration was recorded for the compounds of formulae (1a) and (1b) compared with the comparison compound of Etoposide.

[4] = tested on: SK-MEL-2 cell; test: Cytotoxicity test (SRB method) for SK-MEL-2 cells; assay type: cell-based, human; details: SK-MEL-2, SRB, 48 hours incubation
Description: as §2, §3, §4, §5, §6, §7, §8, §9

| SMILES | Suppression Rate for LLC [1] | cytotoxicity compared with DPT ([2]; A549, in words) | EC50 [2] [nM] | Weight of mouse, Day 1 [3] [g] | Weight of mouse, Day 2 [3] [g] | Weight of mouse, Day 3 [3] [g] | Weight of mouse, Day 4 [3] [g] | Weight of mouse, Day 5 [3] [g] | Weight of mouse, Day 6 [3] [g] | Weight of mouse, Day 7 [3] [g] | Weight of mouse, Day 8 [3] [g] | weight loss ([3]; compared with the control group, 8 days) | ED50(mg/mL) for SK-MEL-2 [4] [mg/mL] | ED50(mg/mL) for A549 [2] [mg/mL] |
| --- | --- | --- | --- | --- | --- | --- | --- | --- | --- | --- | --- | --- | --- | --- |
| COc1cc(C2c3cc4c(cc3CC3COC(=O)C32)OCO4)cc(OC)c1OC(=O)C(N)CC(C)C (centres unmarked) [Compound 1a-2, 4′-demethyl-4′-O-leucinoyl-1-deoxypodophyllotoxin] | 88% | stronger cytotoxicity than DPT | 68 | 23.3 | 24.3 | 25 | 26.1 | 26 | 25 | 25.3 | 26.1 |  |  |  |
| COc1cc(C2c3cc4c(cc3CC3COC(=O)C32)OCO4)cc(OC)c1OC(=O)CCN (centres unmarked) [Compound 1a-10, 4′-demethyl-4′-O-(3-aminopropanoyl)-1-deoxypodophyllotoxin] | 78% |  | 96.7 | 22.9 | 24.1 | 25 | 25.1 | 25.5 | 25.3 | 25 | 25.3 |  |  |  |
| COc1cc(C2c3cc4c(cc3CC3COC(=O)C32)OCO4)cc(OC)c1OC(=O)CCCN (centres unmarked) [Compound 1a-11, 4′-demethyl-4′-O-(4-aminobutanoyl)-1-deoxypodophyllotoxin] | 82% |  | 91.6 | 22.8 | 24 | 24.2 | 25 | 24.4 | 25.4 | 25.4 | 25.5 |  |  |  |
| COc1cc(C2c3cc4c(cc3CC3COC(=O)C32)OCO4)cc(OC)c1OC(=O)CCCCN (centres unmarked) [Compound 1a-12, 4′-demethyl-4′-O-(5-aminopentanoyl)-1-deoxypodophyllotoxin] | 82% |  | 90.3 | 22.8 | 24.2 | 25 | 25.4 | 24.8 | 26 | 25.8 | 26.2 |  |  |  |
| COc1cc(C2c3cc4c(cc3CC3COC(=O)C32)OCO4)cc(OC)c1OC(=O)CCCCCN (centres unmarked) [Compound 1a-13, 4′-demethyl-4′-O-(6-aminohexanoyl)-1-deoxypodophyllotoxin] | 85% and 85.5% |  | 88.5 | 23 | 24.2 | 25 | 25.2 | 25 | 25.5 | 26 | 26.2 |  |  |  |
| COc1cc(C2c3cc4c(cc3CC3COC(=O)C32)OCO4)cc(OC)c1OC(=O)CCCCCCN (centres unmarked) [Compound 1a-14, 4′-demethyl-4′-O-(7-aminoheptanoyl)-1-deoxypodophyllotoxin] | 90% |  | 79.6 | 23 | 23.8 | 21.6 | 26 | 22.3 | 22.8 | 22.8 | 22.5 | about 0.5 g/mouse |  |  |
| COc1cc(C2c3cc4c(cc3CC3COC(=O)C32)OCO4)cc(OC)c1OC(=O)CCCCCCCN (centres unmarked) [Compound 1a-15, 4′-demethyl-4′-O-(8-aminooctanoyl)-1-deoxypodophyllotoxin] | 34.5% |  | 74.2 |  |  |  |  |  |  |  |  |  |  |  |
| COc1cc(C2c3cc4c(cc3CC3COC(=O)C32)OCO4)cc(OC)c1OC(=O)NC(C)C (centres unmarked) [Compound 1b-2, 4′-demethyl-4′-O-isopropylcarbamoyl-1-deoxypodophyllotoxin] | 90% and 90.1% |  | 153 | 22.8 | 23.6 | 23.2 | 25 | 25 | 26.1 | 26 | 26 |  |  |  |
| COc1cc(C2c3cc4c(cc3CC3COC(=O)C32)OCO4)cc(OC)c1OC(=O)NCCCl (centres unmarked) [Compound 1b-3, 4′-demethyl-4′-O-(2-chloroethylcarbamoyl)-1-deoxypodophyllotoxin] | 75% |  | 92 | 23.3 | 23 | 23.6 | 24.5 | 26 | 25 | 26 | 25.8 |  |  |  |
| COc1cc(C2c3cc4c(cc3CC3COC(=O)C32)OCO4)cc(OC)c1OC(=O)NC1CCCCC1 (centres unmarked) [Compound 1b-4, 4′-demethyl-4′-O-cyclohexylcarbamoyl-1-deoxypodophyllotoxin] | 88% |  | 163 | 23 | 23.9 | 25 | 26 | 25 | 26 | 26 | 25.5 |  |  |  |
| COc1cc(C2c3cc4c(cc3CC3COC(=O)C32)OCO4)cc(OC)c1OC(=O)CCCCCCCCCCCCC(=O)O (centres unmarked) [Compound 1c-37, 4′-demethyl-4′-O-(13′-carboxy-tridecanoyl)-1-deoxypodophyllotoxin] |  |  |  |  |  |  |  |  |  |  |  |  | 0.070 | 0.019 |
| COc1cc(C2c3cc4c(cc3CC3COC(=O)C32)OCO4)cc(OC)c1OC(=O)CCCCCCCCCCCCCCC(=O)O (centres unmarked) [Compound 1c-38, 4′-demethyl-4′-O-(15′-carboxy-pentadecanoyl)-1-deoxypodophyllotoxin] |  |  |  |  |  |  |  |  |  |  |  |  | 0.027 | 0.106 |
